Results on 2 compounds are retold here after patent US11191854B2, “Pharmacokinetic enhancements of bifunctional chelates and uses thereof” (Centre for Probe Development and Commercialization, priority 2017, dated 2021).

The series can be described thus: Metabolic excretion study (urine and feces collection in metabolic cages) of 177Lu-labelled human IgG conjugates. Type of series: in vivo, mice (normal CD-1 or athymic CD-1 nude). As to conditions: mice, intravenous, 7 day period; tested as [177Lu]-HuMIgG conjugates. How it is done: Groups of 4 or 5 mice (normal CD-1 or athymic CD-1 nude) were injected intravenously with approximately 15 microcuries of radiolabelled test compound. Test compounds with various linkers were synthesized and radiolabelled with lutetium-177. For pharmacokinetic studies, animals were sacrificed at specific time points, and blood and tumor (when applicable) were analyzed for total radioactivity. For metabolism studies, animals were placed in metabolic cages (4-5 per cage) for urine and feces collection every 24 hours for up to 7 days. The radioactive content of urine and feces samples was quantified and converted to total urine or feces output based on weight. Excretion profiles for urine, feces, or total excretion (urine+feces) were generated by plotting cumulative % injected dose (%ID) over time.
The human IgG preparation used consisted of a purified mixture of all IgG isotypes (IgG1-4).

As for `O=C(O)CN1CCN(CC(=O)O)CCN(C(CCC(=O)NCCCCCCCCCCC(=O)Oc2c(F)c(F)cc(F)c2F)C(=O)O)CCN(CC(=O)O)CC1` (centres unmarked) [Compound B, 4-{[11-oxo-11-(2,3,5,6-tetrafluorophenoxy)undecyl]carbamoyl}-2-[4,7,10-tris(carboxymethyl)-1,4,7,10-tetraazacyclododecan-1-yl]butanoic acid], the “total excretion of radioactivity compared to Compound A-HuMIgG” value was “increased the amount total excretion of radioactivity”.
As for `O=C(O)CN1CCN(CC(=O)O)CCN(C(CCC(=O)NCCOCCOCCOCCC(=O)Oc2c(F)c(F)cc(F)c2F)C(=O)O)CCN(CC(=O)O)CC1` (centres unmarked) [Compound C, 4-{[2-(2-{2-[3-oxo-3-(2,3,5,6-tetrafluorophenoxy)propoxy]ethoxy}ethoxy)ethyl]carbamoyl}-2-[4,7,10-tris(carboxymethyl)-1,4,7,10-tetraazacyclododecan-1-yl]butanoic acid], the entry is “increased the amount total excretion of radioactivity”.
